# Measured values published in ChEMBL document CHEMBL5665443, “Enzyme Inhibitor Single Concentration assay results for EUbOPEN Chemogenomics Library” (2024).
# Key:
# Conditions in all cases: Compound Concentration 10.0 uM, Hit No
# [1] = biological target: T1, Endonuclease III-like protein 1 (Homo sapiens) (UniProt P78549);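 note: enzyme assay tracking NTHL1 cutting and release of a quenched double-stranded DNA oligo substrate, read as fluorescence at 594 nm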
# T1 sequence (whole entry): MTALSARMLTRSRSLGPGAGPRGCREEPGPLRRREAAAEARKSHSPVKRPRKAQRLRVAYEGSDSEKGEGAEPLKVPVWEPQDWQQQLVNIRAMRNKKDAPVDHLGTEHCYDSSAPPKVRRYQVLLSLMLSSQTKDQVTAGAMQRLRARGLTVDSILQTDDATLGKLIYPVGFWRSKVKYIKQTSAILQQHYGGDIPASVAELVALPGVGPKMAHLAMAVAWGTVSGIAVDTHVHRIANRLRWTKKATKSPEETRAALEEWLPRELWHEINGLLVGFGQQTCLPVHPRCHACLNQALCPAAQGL
# Description: Inhibition of NTHL1 by quantifying inhibition of NTHL1-mediated cleavage and dissociation of quenched duplex DNA oligonucleotides, measured as fluorescence at 594 nm.
# [2] = biological target: Methyl-CpG-binding domain protein 4 (Homo sapiens) (UniProt O95243);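 note: MBD4 activity read as fluorescence at 594 nm from cleavage and release of a quenched duplex DNA oligonucleotide, with APE1 coupled to incise the strand and raise turnover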
# Description: Inhibition of MBD4 by quantifying inhibition of MBD4-mediated cleavage and dissociation of quenched duplex DNA oligonucleotides, measured as fluorescence at 594 nm. To generate a functional strand incision and increase turn-over this assay is coupled to APE1.
# [3] = biological target: T2, Adenine DNA glycosylase (Homo sapiens) (UniProt Q9UIF7);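 note: human MUTYH activity read as 594 nm fluorescence from cleavage and release of a quenched DNA duplex, coupled with APE1 for strand incision, lower signal meaning inhibition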
# T2 sequence (whole entry): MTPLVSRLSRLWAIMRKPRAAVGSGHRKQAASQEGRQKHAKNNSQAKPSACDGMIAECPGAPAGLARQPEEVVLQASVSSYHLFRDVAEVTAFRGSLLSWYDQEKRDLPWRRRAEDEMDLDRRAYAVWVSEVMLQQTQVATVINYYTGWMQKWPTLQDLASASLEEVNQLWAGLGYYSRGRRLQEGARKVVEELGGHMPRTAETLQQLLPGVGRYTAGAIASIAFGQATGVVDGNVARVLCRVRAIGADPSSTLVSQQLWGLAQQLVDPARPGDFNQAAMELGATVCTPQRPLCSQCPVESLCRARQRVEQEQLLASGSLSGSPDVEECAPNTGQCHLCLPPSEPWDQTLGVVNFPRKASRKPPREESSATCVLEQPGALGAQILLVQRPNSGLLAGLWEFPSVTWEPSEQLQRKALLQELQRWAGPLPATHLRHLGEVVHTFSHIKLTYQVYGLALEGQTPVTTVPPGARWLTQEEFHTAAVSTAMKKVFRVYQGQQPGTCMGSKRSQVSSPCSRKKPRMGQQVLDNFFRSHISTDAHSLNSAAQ
# Description: Inhibition of MUTYH by quantifying inhibition of MUTYH-mediated cleavage and dissociation of quenched duplex DNA oligonucleotides, measured as fluorescence at 594 nm. To generate a functional strand incision and increase turn-over this assay is coupled to APE1.
# [4] = biological target: Uracil-DNA glycosylase (Homo sapiens) (UniProt P13051);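 note: UNG excision on a quenched double-stranded DNA oligo probe, with APE1 added for strand incision and turnover, read as fluorescence at 594 nm as strands separate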
# Description: Inhibition of UNG by quantifying inhibition of UNG-mediated cleavage and dissociation of quenched duplex DNA oligonucleotides, measured as fluorescence at 594 nm. To generate a functional strand incision and increase turn-over this assay is coupled to APE1.
# [5] = biological target: T3, Single-strand selective monofunctional uracil DNA glycosylase (Homo sapiens) (UniProt Q53HV7);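 note: enzymatic SMUG1 assay coupled with APE1, reading fluorescence at 594 nm released when a quenched double-stranded DNA oligonucleotide substrate is cleaved and separated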
# T3 sequence (whole entry): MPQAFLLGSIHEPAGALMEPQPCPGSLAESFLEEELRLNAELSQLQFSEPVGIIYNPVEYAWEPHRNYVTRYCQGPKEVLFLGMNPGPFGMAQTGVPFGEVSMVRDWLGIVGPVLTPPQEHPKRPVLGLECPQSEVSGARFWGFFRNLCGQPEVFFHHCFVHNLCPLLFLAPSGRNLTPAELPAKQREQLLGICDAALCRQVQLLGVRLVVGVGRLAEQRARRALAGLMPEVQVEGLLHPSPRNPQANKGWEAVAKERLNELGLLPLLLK
# Description: Inhibition of SMUG1 by quantifying inhibition of SMUG1-mediated cleavage and dissociation of quenched duplex DNA oligonucleotides, measured as fluorescence at 594 nm. To generate a functional strand incision and increase turn-over this assay is coupled to APE1.
# [6] = biological target: DNA-3-methyladenine glycosylase (Homo sapiens) (UniProt P29372);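 note: enzyme assay where MPG cuts a quenched duplex DNA oligonucleotide probe, paired with APE1 for strand incision and turnover, read as fluorescence at 594 nm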
# Description: Inhibition of MPG by quantifying inhibition of MPG-mediated cleavage and dissociation of quenched duplex DNA oligonucleotides, measured as fluorescence at 594 nm. To generate a functional strand incision and increase turn-over this assay is coupled to APE1.
# [7] = biological target: G/T mismatch-specific thymine DNA glycosylase (Homo sapiens) (UniProt Q13569);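 note: human TDG cleavage of quenched duplex DNA oligonucleotides coupled to APE1, strand release read as fluorescence at 594 nm, inhibition of TDG activity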
# Description: Inhibition of TDG by quantifying inhibition of TDG-mediated cleavage and dissociation of quenched duplex DNA oligonucleotides, measured as fluorescence at 594 nm. To generate a functional strand incision and increase turn-over this assay is coupled to APE1.
# [8] = biological target: Endonuclease 8-like 1 (Homo sapiens) (UniProt Q96FI4);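 note: fluorescence at 594 nm from quenched duplex DNA oligonucleotides released by NEIL1 cleavage and strand separation, reported as reduction of this enzyme activity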
# Description: Inhibition of NEIL1 by quantifying inhibition of NEIL1-mediated cleavage and dissociation of quenched duplex DNA oligonucleotides, measured as fluorescence at 594 nm.
# [9] = biological target: T4, Endonuclease 8-like 2 (Homo sapiens) (UniProt Q969S2);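 note: fluorescence at 594 nm reports NEIL2 cutting and release of a quenched double-stranded DNA oligo substrate, reduced signal read as inhibition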
# T4 sequence (whole entry): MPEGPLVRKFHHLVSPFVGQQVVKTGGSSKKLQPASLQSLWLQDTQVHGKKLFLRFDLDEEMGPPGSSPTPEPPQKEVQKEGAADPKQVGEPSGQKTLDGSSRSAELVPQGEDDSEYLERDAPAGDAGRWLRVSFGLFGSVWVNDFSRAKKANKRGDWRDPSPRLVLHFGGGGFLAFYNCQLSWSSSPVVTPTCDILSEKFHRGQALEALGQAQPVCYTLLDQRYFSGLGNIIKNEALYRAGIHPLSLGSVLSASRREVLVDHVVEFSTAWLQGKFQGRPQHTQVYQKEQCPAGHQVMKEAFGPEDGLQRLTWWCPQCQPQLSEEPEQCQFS
# Description: Inhibition of NEIL2 by quantifying inhibition of NEIL2-mediated cleavage and dissociation of quenched duplex DNA oligonucleotides, measured as fluorescence at 594 nm.
# [10] = biological target: N-glycosylase/DNA lyase (Homo sapiens) (UniProt O15527);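 note: OGG1 cleavage of a quenched duplex DNA oligonucleotide, coupled to APE1 for strand incision, read as fluorescence at 594 nm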
# Sequence of N-glycosylase/DNA lyase (Homo sapiens) (O15527 whole entry): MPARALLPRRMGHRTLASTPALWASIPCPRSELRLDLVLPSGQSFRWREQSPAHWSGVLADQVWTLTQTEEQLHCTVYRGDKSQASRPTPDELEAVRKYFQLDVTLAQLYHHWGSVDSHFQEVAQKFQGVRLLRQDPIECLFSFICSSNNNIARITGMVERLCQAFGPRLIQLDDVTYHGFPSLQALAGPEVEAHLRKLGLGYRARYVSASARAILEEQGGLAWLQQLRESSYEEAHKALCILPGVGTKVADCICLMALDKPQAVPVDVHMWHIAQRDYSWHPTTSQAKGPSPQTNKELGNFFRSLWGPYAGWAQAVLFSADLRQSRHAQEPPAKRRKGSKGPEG
# Description: Inhibition of OGG1 by quantifying inhibition of OGG1-mediated cleavage and dissociation of quenched duplex DNA oligonucleotides, measured as fluorescence at 594 nm. To generate a functional strand incision and increase turn-over this assay is coupled to APE1.
# Sequence of Endonuclease 8-like 1 (Homo sapiens) (Q96FI4 whole entry): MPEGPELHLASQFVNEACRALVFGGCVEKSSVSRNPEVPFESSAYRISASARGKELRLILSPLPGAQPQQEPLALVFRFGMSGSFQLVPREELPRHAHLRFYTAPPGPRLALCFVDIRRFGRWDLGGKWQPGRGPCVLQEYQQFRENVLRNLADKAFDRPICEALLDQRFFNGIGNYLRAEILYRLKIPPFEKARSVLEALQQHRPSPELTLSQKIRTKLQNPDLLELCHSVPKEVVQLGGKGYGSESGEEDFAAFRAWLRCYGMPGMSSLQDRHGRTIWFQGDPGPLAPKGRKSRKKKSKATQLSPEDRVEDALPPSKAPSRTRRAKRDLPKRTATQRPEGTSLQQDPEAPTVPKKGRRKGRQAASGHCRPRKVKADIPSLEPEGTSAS
# Sequence of G/T mismatch-specific thymine DNA glycosylase (Homo sapiens) (Q13569 whole entry): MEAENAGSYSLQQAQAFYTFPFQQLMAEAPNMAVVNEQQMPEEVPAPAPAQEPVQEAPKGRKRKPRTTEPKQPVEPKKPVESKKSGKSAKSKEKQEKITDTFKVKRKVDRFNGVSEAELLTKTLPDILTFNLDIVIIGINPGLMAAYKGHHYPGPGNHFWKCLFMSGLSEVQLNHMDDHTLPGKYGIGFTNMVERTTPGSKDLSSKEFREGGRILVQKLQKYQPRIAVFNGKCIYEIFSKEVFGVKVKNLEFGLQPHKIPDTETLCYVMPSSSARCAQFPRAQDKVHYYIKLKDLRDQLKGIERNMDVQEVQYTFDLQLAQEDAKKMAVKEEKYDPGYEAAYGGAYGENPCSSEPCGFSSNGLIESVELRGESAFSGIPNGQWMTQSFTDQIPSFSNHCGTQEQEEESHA
# Sequence of Uracil-DNA glycosylase (Homo sapiens) (P13051 whole entry): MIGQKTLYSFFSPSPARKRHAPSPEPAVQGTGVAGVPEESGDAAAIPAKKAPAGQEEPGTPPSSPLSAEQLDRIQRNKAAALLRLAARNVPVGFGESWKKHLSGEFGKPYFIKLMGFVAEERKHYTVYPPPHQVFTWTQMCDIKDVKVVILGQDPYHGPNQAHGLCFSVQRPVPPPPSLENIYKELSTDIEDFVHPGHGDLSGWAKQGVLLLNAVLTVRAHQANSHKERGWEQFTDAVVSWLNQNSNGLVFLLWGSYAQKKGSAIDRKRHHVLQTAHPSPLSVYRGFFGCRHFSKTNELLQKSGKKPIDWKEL
# Sequence of Methyl-CpG-binding domain protein 4 (Homo sapiens) (O95243 whole entry, the tested form may be a part): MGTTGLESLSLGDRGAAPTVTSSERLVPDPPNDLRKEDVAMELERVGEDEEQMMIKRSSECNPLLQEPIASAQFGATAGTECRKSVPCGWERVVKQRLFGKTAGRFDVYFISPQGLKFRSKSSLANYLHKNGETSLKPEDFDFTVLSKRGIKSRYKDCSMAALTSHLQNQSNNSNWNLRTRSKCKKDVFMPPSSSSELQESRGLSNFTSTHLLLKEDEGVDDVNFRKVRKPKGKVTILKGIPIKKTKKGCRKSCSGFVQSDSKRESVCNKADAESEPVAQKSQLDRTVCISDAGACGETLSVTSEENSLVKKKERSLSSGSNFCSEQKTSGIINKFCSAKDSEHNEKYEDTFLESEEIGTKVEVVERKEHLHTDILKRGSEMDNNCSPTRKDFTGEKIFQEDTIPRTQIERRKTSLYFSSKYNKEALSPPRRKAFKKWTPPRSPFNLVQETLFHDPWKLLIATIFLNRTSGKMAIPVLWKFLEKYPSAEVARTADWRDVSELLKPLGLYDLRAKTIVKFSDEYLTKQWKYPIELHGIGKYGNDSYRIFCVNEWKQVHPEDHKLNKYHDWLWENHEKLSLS
# Sequence of DNA-3-methyladenine glycosylase (Homo sapiens) (P29372 whole entry): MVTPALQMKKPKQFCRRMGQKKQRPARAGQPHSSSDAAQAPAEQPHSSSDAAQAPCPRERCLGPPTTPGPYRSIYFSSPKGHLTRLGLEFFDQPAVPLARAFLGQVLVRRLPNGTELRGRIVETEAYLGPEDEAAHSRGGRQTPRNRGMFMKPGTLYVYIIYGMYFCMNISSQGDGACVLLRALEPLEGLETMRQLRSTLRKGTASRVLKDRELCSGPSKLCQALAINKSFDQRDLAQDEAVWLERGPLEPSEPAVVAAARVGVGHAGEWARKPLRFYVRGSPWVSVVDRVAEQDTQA
inhibition [1],inhibition [2],inhibition [3],inhibition [4],inhibition [5],inhibition [6],inhibition [7],inhibition [8],inhibition [9],inhibition [10],SMILES
8.82%,49.9%,65%,-2.35%,-6.12%,20.4%,51%,1.64%,-0.35%,18.4%,O=C(O)COc1cccc(-c2ocnc2-c2nc(-c3ccccc3)c(-c3ccccc3)o2)c1
-3.21%,19.3%,14.6%,-7.99%,-7.2%,9.36%,20.1%,13.3%,3.51%,3.96%,CC1(C)[C@H]2C[C@H](C/C=C\CCCC(=O)O)[C@@H](NC(=O)c3csc4ccc(O)cc34)[C@@H]1C2
4.7%,19.3%,-2.6%,-7.52%,7.84%,23.5%,11.5%,12%,0.669%,-4.77%,CC(CNS(=O)(=O)C(C)C)c1ccc(-c2ccc(C#N)cc2)cc1 (stereo not given)
-6.04%,2.91%,-3.71%,-6.03%,-0.41%,0.733%,6.11%,0.00926%,0.669%,-6.32%,FC(F)(F)c1ccccc1-c1cc(C(F)(F)F)c2[nH]c(C3=NOC4(CCCCC4)C3)nc2c1
14.6%,39.2%,61.2%,2.72%,2.42%,12.7%,35%,11.7%,14.4%,15.6%,O=C(O)c1ccc(S(=O)(=O)N(Cc2ccc(OC(F)(F)F)cc2)c2ncc(C(F)(F)F)cc2Cl)cc1
1.19%,17.3%,15.9%,-4.12%,-3.08%,6.97%,11.4%,1.28%,4.01%,3.78%,CCCCC[C@H](O)/C=C/[C@H]1CCC(=O)[C@@H]1CCCCCCC(=O)O
12.9%,33.2%,64.4%,2.63%,8.57%,16.5%,37.7%,6.38%,5.25%,24.8%,O=C(COc1cccc2ccccc12)Nc1cc(Cl)ccc1C(=O)O
8.82%,16.1%,12.3%,-3.16%,-0.127%,10.3%,24.2%,0.898%,0.414%,-5.15%,N[C@](CC1c2ccccc2Oc2ccccc21)(C(=O)O)[C@H]1C[C@@H]1C(=O)O
-8.51%,2.28%,7.26%,-3.13%,-5.5%,19.8%,9.08%,1.64%,-2.64%,-7.67%,COC[C@H](O)Cn1c(=O)cnn(-c2ccc(Cl)c(C(=O)NCC3(O)CCCCCC3)c2)c1=O
-1.01%,29.1%,18.2%,-1.04%,8.69%,18.6%,29.8%,-0.0556%,3.01%,32.3%,CCOC(=O)c1c(C)[nH]c2ccc3c(c12)CN1CCc2cc(OC)ccc2C1O3 (stereo not given)
9.25%,21%,35.7%,-8.36%,7.57%,-2.94%,26.3%,0.686%,1.51%,-1.34%,N#Cc1ccc(NC(=O)Nc2ccccc2Br)c2nn[nH]c12
